Results from patent US4322370A, “Polycyclic compounds” (Beecham Group Limited, priority 1975, dated 1982).

Legend:
[1] = Reduction in food intake in hungry rats after oral administration (anorexic activity); type: in vivo; conditions: 10 mg/kg
Method: The useful anorexic activity of 4-(4-chlorophenyl)-2, 2-dimethyl-7-(2-dimethylaminoethoxy)-1-methylidene tetralin and 4-(4-chlorophenyl-1,2,2,-trimethyl-7-(2-dimethylaminoethoxy) tetralin were determined by the oral administration to hungry rats of the compound and measuring the reduction in their food intake. The results are as follows: […]

[2] = tested on: reserpine-induced hypothermia; assay: Reserpine Prevention test (prevention of reserpine-induced hypothermia in mice); type: in vivo; conditions: Mus musculus, read-out: Approximate Dose required mg/kg (dose at which compounds are active on the Reserpine Prevention Test in Mice)
Excerpt: The results given in Table 1 were obtained for compounds of the formula (XIII): [drawing 22]

[3] = Oral toxicity in mice (deaths, LD50); conditions: for Min Dose (mg/kg) at which deaths occurred: mice; for LD50: mouse, in vivo, po
[4] = in vivo; conditions: mouse, po

| Structure (SMILES) | reduction in food intake [1] [%] | minimal effective dose [2] [mg/kg] | Min Dose (mg/kg) at which deaths occurred [3] [mg/kg] | LD50 [3] [mg/kg] | LD50 [4] [mg/kg] |
| --- | --- | --- | --- | --- | --- |
| C=C1c2cc(OCCN(C)C)ccc2C(c2ccc(Cl)cc2)CC1(C)C (centres unmarked) [4-(4-Chlorophenyl)-2,2-dimethyl-7-(2-dimethylaminoethoxy)-1-methylidene tetralin] | 51 | – | – | – | – |
| CC1c2cc(OCCN(C)C)ccc2C(c2ccc(Cl)cc2)CC1(C)C (centres unmarked) [CH2 CH3 CHCH3 Cl H, 4-(4-Chlorophenyl)-1,2,2-trimethyl-7-(2-dimethylaminoethoxy)tetralin] | 35 | 3 | > 100 | > 100 | – |
| CN(C)CCOc1ccc2c(c1)C(Cl)C(C)(C)CC2c1ccc(Cl)cc1 (centres unmarked) [CH2 CH3 CHCl Cl H, 1-Chloro-4-(4-chlorophenyl)-2,2-dimethyl-7-(2-dimethylaminoethoxy)tetralin] | – | 0.1 | 30 | 33 | – |
| CN(C)CCOc1ccc2c(c1)C(O)C(C)(C)CC2c1ccc(Cl)cc1 (centres unmarked) [CH2 CH3 CHOH Cl H, 4-(4-Chlorophenyl)-1-hydroxy-2,2-dimethyl-7-(2-dimethylaminoethoxy)tetralin] | – | 0.1 | 3 | – | 11 |
| CN(C)CCOc1ccc2c(c1)C(=O)C(C)(C)CC2c1ccc(Cl)c(Cl)c1 (centres unmarked) [CH2 CH3 CO Cl Cl, 4-(3,4-Dichlorophenyl)-2,2-dimethyl-7-(2-dimethylaminoethoxy)-1-tetralone] | – | 1 | 10 | 10 to 30 | – |
| CN(C)CCOc1ccc2c(c1)C(=O)C(C)(C)CC2c1ccc(Cl)cc1 (centres unmarked) [CH2 CH3 CO Cl H, 4-(4-Chlorophenyl)-2,2-dimethyl-7-(2-dimethylaminoethoxy)-1-tetralone] | – | 0.03 | 10 | 55 | – |
| CN(C)CCOc1ccc2c(c1)C(=O)C(C)(C)CC2c1cccc(C(F)(F)F)c1 (centres unmarked) [CH2 CH3 CO H CF3, 4-(3-Trifluoromethylphenyl)-2,2-dimethyl-7-(2-dimethylaminoethoxy)-1-tetralone] | – | 3 | > 100 | > 100 | – |
| CNCC(O)COc1ccc2c(c1)C(=O)C(C)(C)CC2c1ccc(Cl)c(Cl)c1 (centres unmarked) [H CO Cl Cl, 4-(3,4-Dichlorophenyl)-7-(2-hydroxy-3-methylaminopropoxy)-2,2-dimethyl-1-tetralone] | – | 1 | > 100 | 100 | – |
